This note sets out measurements from ChEMBL document CHEMBL4373694 (J Med Chem, 2019).

pIC50: −log10 of the molar value. Active and inactive are the calls of the source. The rule behind the calls is not given here.

Assay [1] is described as follows: Inhibition of human 20S proteasome beta 1i.
Assay [2] in a line: Inhibition of 20S proteasome beta 5i/20S proteasome beta 1i in human PBMC cell lysate assessed as reduction in chymotrypsin-like activity pre-incubated for 30 mins followed by Meo-Suc-GLF-AM substrate addition and measured after 30 mins by fluorescence assay. The class given is subcellular.
The nature of assay [3]: Inhibition of 20S proteasome beta 5c (unknown origin) preincubated for 1 hr followed by fluorescence based assay. Further details: species or system Homo sapiens.
Assay [4] is filed under the species Homo sapiens. In words: Selectivity ratio, ratio of IC50 for 20S proteasome beta 5c (unknown origin) to IC50 for human 20S proteasome beta 1i.
Assay [5] can be described thus: Inhibition of 20S proteasome beta 1c derived from human erythrocytes preincubated for 1 hr using Z-nLPnLD-Glo peptide as substrate by proteasome-glo caspase-like assay.
Assay [6] is described as follows: Inhibition of human 20S proteasome beta 5i preincubated for 1 hr followed by fluorescence based assay.
The species named for assay [7] is Homo sapiens. In words: Selectivity ratio, ratio of IC50 for human 20S proteasome beta 1i to IC50 for 20S proteasome beta 5i (unknown origin).
Assay [8] concerns PBMC. The assay can be described thus: Cytotoxicity against human PBMC cells assessed as reduction in cell viability by CellTiter Glo assay. The class given is functional, cell-based. On the technique in general: In ATP-based viability assays light output follows the ATP content of the culture.
For assay [9], the species on record is Homo sapiens. The assay can be described thus: Inhibition of 20S proteasome beta 5i in human PBMC cells assessed as induction of PSMB6 expression at 100 nM after 3 to 72 hrs by RT-PCR analysis. The assay is classed as cell-based.
The nature of assay [10]: Cytotoxicity against human pDC assessed as reduction in cell viability by CellTiter Glo assay. The class given is functional.
For assay [11], the species on record is Homo sapiens. The assay can be described thus: Inhibition of 20S proteasome beta 5i in human PBMC cells assessed as induction of PSMB5 expression at 100 nM after 3 to 72 hrs by RT-PCR analysis. The class given is cell-based.
Assay [12] is described as follows: (§1) Cytotoxicity against anti-CD3/CD28-stimulated human CD4-positive T cells with CRISP/CAS9 20S proteasome beta 5c knockout assessed as reduction in cell viability measured on day 8 by CellTiter Glo assay relative to control. The assay is classed as functional.
A short description of assay [13]: Cytotoxicity against human plasmablasts assessed as reduction in cell viability by CellTiter Glo assay. The class given is functional.
A short description of assay [14]: Cytotoxicity against anti-CD3/CD28-stimulated human CD4-positive T cells with CRISP/CAS9 20S proteasome beta 5i knockout assessed as reduction in cell viability measured on day 8 by CellTiter Glo assay relative to control. The class given is functional.
The species entered for assay [15] is Homo sapiens. The assay can be described thus: Inhibition of 20S proteasome beta 5i in human PBMC cells assessed as induction of PSMB7 expression at 100 nM after 3 to 72 hrs by RT-PCR method. The assay is classed as cell-based.
Assay [16] is filed under the species Homo sapiens. In words: Selectivity ratio, ratio of IC50 for 20S proteasome beta 1c (unknown origin) to IC50 for human 20S proteasome beta 5i.
Assay [17] has as its system PBMC. In words: Induction of ubiquitin accumulation in human PBMC cells at 100 nM after 6 hrs by Western blot analysis. The class given is functional, cell-based. A general note: Immunoblotting shows a protein as a band on a membrane.
For assay [18], the species on record is Homo sapiens. The assay can be described thus: Inhibition of 20S proteasome beta 5i in human PBMC cells assessed as upregulation of 20S proteasome beta 5c level at 100 nM after 24 to 72 hrs by Western blot analysis. The assay is classed as cell-based.
Assay [19] is filed under the species Homo sapiens. The assay can be described thus: Selectivity ratio, ratio of IC50 for 20S proteasome beta 5c (unknown origin) to IC50 for human 20S proteasome beta 5i.
Assay [20] deals with PBMC. The assay can be described thus: Induction of apoptosis in human PBMC cells at 10 uM after 12 hrs by caspase 3,7-glo assay. The class given is functional, cell-based.
For assay [21], the species on record is Homo sapiens. The assay is described as §1. The assay is classed as functional.

The pIC50 is the negative decadic logarithm of the IC50, by convention in mol/L. For the compound `CC(C)C[C@H](NC(=O)c1cn(-c2ccccc2)nn1)B(O)O`, the pIC50 in [1] was 9.24; in assay [2], 7.60; in [3], 6.12; in assay [5] it was 5.38; in [6], 8.85. In addition, in the assay listed under Homo sapiens [4], the Ratio IC50 lay within 1300 to 3400.
Consider `Cc1c(C(=O)N[C@@H](CC(C)C)B(O)O)nnn1Cc1ccccc1`, for which the negative logarithm of the IC50 (pIC50) is 7.82 in assay [1]; 6.54 in assay [2]; 5.14 in assay [3]; under 4.70 in assay [5]; 7.40 in assay [6]. Further, the Ratio IC50 in the assay filed under Homo sapiens [7] turned out to be 0.4.
Turning to `CC(C)C[C@H](NC(=O)c1cc(Cc2ccccc2)on1)B(O)O`, the pIC50 in [1] is 8.03; in assay [2] it was 7.07; in assay [3], 5.52; in assay [5], 5.85; in assay [6], 7.64.
As for `CC(C)C[C@H](NC(=O)[C@H](Cc1ccccc1)NC(=O)c1cnccn1)B(O)O` [BORTEZOMIB], the pIC50 in the assay on PBMC [8] is 8.57; in assay [1], 8.10; in [10] it was 8.28; in assay [13], 8.41; in assay [5] it was 7.49. The inhibition entry in the assay filed under Homo sapiens [9], in the assay filed under Homo sapiens [11] and in the assay listed under Homo sapiens [15] was “Active” throughout. Besides, the “fold change (FC)” value in assay [12] and in [14] was 3 throughout.
In the case of `Cc1ccc(C[C@H](NC(=O)c2cn(-c3ccccc3)nn2)B2O[C@@H]3C[C@@H]4C[C@@H](C4(C)C)[C@]3(C)O2)c(C)c1`, the pIC50 is 7.30 in assay [1]; 8.16 in [2]; 6.57 in [3]; under 4.70 in assay [5]; 9.17 in [6].
In the case of `Cc1ccc(C[C@H](NC(=O)c2cc(Cc3ccccc3)on2)B2O[C@@H]3C[C@@H]4C[C@@H](C4(C)C)[C@]3(C)O2)c(C)c1`, the pIC50 in [1] is 7.04; in [2] it was 7.10; in [3], 5.89; in assay [5], under 4.70; in assay [6], 8.39.
`O=C(N[C@@H](Cc1ccc(Cl)cc1)B(O)O)c1cn(Cc2ccccc2)nn1`: the pIC50 in assay [1] is 8.41; in [2], 8.64; in assay [3] it was 7.34; in assay [5], 6.28; in assay [6], 9.27.
For `C=CC(=O)N(CC(=O)N[C@@H](Cc1ccc(C)cc1C)B(O)O)c1ccccc1F`, the pIC50 is 5.24 with PBMC [8]; 5.66 in [1]; 5.22 in [10]; 5.62 in assay [3]; 6.17 in assay [13]; under 4.70 in [5]. Besides, in assay [6], the pIC50 was 8.09. The inhibition result in the assay filed under Homo sapiens [9], in the assay filed under Homo sapiens [18], in the assay listed under Homo sapiens [11] and in the assay listed under Homo sapiens [15] was “Active” in each case. In addition, the Ratio IC50 in the assay listed under Homo sapiens [16] was over 2400; in the assay listed under Homo sapiens [7], 247; in the assay filed under Homo sapiens [19] it was 283 to 296; in the assay listed under Homo sapiens [4], 1.1. The result with PBMC [17] and with PBMC [20] was inactive. Also, the outcome in the assay listed under Homo sapiens [21] was Active.
In the case of `CC(C)C[C@H](NC(=O)c1cn(C2CCCCC2)nn1)B(O)O`, the pIC50 with PBMC [8] is 5.14; in assay [1], 9.07; in [10], 5.43; in assay [2], 7.22; in assay [3], 5.54; in assay [13], 5.54. Also, the pIC50 is 6.32 in [5] and 8.39 in [6]. Further, the Ratio IC50 was 120 in the assay filed under Homo sapiens [16], 0.2 in the assay listed under Homo sapiens [7], 710 in the assay filed under Homo sapiens [19] and 1300 to 3400 in the assay filed under Homo sapiens [4].
Turning to `COc1ccc(C[C@H](NC(=O)[C@H](C)NC(=O)CN2CCOCC2)C(=O)N[C@@H](Cc2ccccc2)C(=O)[C@@]2(C)CO2)cc1`, the inhibition entry in the assay filed under Homo sapiens [9], in the assay listed under Homo sapiens [11] and in the assay filed under Homo sapiens [15] was “Active” in each case. Moreover, the pIC50 in [1] is 6.10; in assay [3] it was 5.89; in [5], 4.89; in assay [6], 6.84. The Ratio IC50 in the assay filed under Homo sapiens [19] is 9 to 20; in the assay listed under Homo sapiens [4], 1.6.
With `O=C(N[C@@H](Cc1ccc(Cl)cc1)B(O)O)c1cnn(-c2ccccc2)c1`, the pIC50 is 7.92 in assay [1]; 6.89 in [2]; 5.49 in assay [3]; under 4.70 in assay [5]; 8.17 in [6].
As to `COc1ccc(C(=O)NCCn2cc(C(=O)N[C@@H](CC(C)C)B(O)O)nn2)c(OC)c1OC`, the pIC50 was 7.00 in the assay with PBMC [8]; 8.09 in [1]; 7.66 in assay [10]; 7.47 in assay [2]; 7.43 in assay [3]; 7.27 in assay [13]. Also, the pIC50 was 5.85 in [5] and 8.66 in assay [6]. Also, the inhibition result in the assay filed under Homo sapiens [9], in the assay filed under Homo sapiens [11] and in the assay listed under Homo sapiens [15] was “Active” in each case. Moreover, the Ratio IC50 in the assay listed under Homo sapiens [16] worked out at 640; in the assay listed under Homo sapiens [7], 5.2; in the assay filed under Homo sapiens [19], 17; in the assay filed under Homo sapiens [4], 5.2.
Take `Cc1ccc(C[C@H](NC(=O)c2cn(Cc3ccccc3)nn2)B2O[C@@H]3C[C@@H]4C[C@@H](C4(C)C)[C@]3(C)O2)c(C)c1`: the pIC50 in assay [1] was 7.77; in [2], 7.96; in [3] it was 6.38; in assay [5] it was under 4.70; in assay [6], 8.92.
Taken in the same sequence, the figures for `O=C(N[C@@H](Cc1ccc(Cl)cc1)B(O)O)c1cn(-c2ccccc2)nn1` were 7.82, 8.49, 7.19, 5.26 and 9.04.
Turning to `Cc1ccc(C[C@H](NC(=O)c2nnn(Cc3ccccc3)c2C)B2O[C@@H]3C[C@@H]4C[C@@H](C4(C)C)[C@]3(C)O2)c(C)c1`, the pIC50 was under 5.00 in the assay with PBMC [8]; 5.07 in [1]; under 5.00 in [10]; 7.10 in assay [2]; 5.04 in assay [3]; 5.03 in assay [13]. Besides, the results for the pIC50 in [5] and in [6] were under 4.70 and 8.39, respectively. The Ratio IC50 in the assay filed under Homo sapiens [16] is over 4800; in the assay filed under Homo sapiens [7], 2100; in the assay listed under Homo sapiens [19], 2200.
On to `CC(C)C[C@H](NC(=O)c1cn(Cc2ccccc2)nn1)B(O)O`, for which the pIC50 in assay [1] was 9.26; in [2] it was 7.35; in assay [3] it was 6.05; in assay [5], 7.15; in assay [6], 8.40. For the same compound, the Ratio IC50 in the assay filed under Homo sapiens [7] was 0.14; in the assay listed under Homo sapiens [19] it was 220 to 710; in the assay listed under Homo sapiens [4], 1300 to 3400.
On to `CC(C)C[C@H](NC(=O)c1ncn(Cc2ccccc2)n1)B(O)O`, for which the pIC50 is 7.72 in assay [1]; 5.05 in assay [2]; under 5.00 in assay [3]; under 4.70 in assay [5]; 6.44 in assay [6].
As to `CC(C)C[C@H](NC(=O)c1cn(C)nn1)B1O[C@@H]2C[C@@H]3C[C@@H](C3(C)C)[C@]2(C)O1`, the pIC50 is 8.05 in assay [1]; 6.60 in assay [2]; 5.02 in assay [3]; under 4.70 in assay [5]; 7.26 in assay [6]. Also, in the assay filed under Homo sapiens [19], the Ratio IC50 was 174.
For `Cc1c(C(=O)N[C@@H](CC(C)C)B(O)O)nnn1-c1ccccc1`, the pIC50 in assay [1] was 7.39; in assay [2], 6.51; in assay [3], under 5.00; in assay [5], 4.74; in assay [6] it was 6.89.
As to `COC[C@H](NC(=O)c1cc(C)on1)C(=O)N[C@H](C(=O)N[C@@H](CC(C)C)C(=O)[C@@]1(C)CO1)C1CC1`, the inhibition entry in the assay listed under Homo sapiens [9], in the assay listed under Homo sapiens [11] and in the assay filed under Homo sapiens [15] was “Active” throughout. In addition, the pIC50 is 6.16 in assay [1], 7.11 in [3], 4.96 in assay [5] and 5.68 in assay [6]. The Ratio IC50 in the assay listed under Homo sapiens [19] stood at 0.04; in the assay listed under Homo sapiens [4], 0.11.
In the case of `CC(C)C[C@H](NC(=O)c1nnc(Cc2ccccc2)[nH]1)B(O)O`, the pIC50 in assay [1] was 8.20; in assay [2], 6.70; in assay [3] it was 6.46; in assay [5], 7.21; in assay [6], 7.72.
Taken in the same sequence, the figures for `O=C(N[C@@H](Cc1ccc(Cl)cc1)B(O)O)c1cnn(Cc2ccccc2)c1` were 6.96, 6.33, 5.11, under 4.70 and 7.06.
